# The source made the active and inactive calls.
# Assays:
# [1] = target: T1, Heat shock factor protein 1 (Mus musculus, UniProt P38532); experiment: HSF1 potentiators in luciferase reporter cells, confirmation, cell-based, NIH3T3, luminescence, dose retest (AID 435004); format: functional;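 further: stress induced by proteasome inhibitor MG132 added 30 min after compound; luciferase reporter driven by HSF1 response element in NIH3T3 cells; actives raise luminescence as potentiators of the MG132 stress response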
# T1 sequence (P38532 whole entry): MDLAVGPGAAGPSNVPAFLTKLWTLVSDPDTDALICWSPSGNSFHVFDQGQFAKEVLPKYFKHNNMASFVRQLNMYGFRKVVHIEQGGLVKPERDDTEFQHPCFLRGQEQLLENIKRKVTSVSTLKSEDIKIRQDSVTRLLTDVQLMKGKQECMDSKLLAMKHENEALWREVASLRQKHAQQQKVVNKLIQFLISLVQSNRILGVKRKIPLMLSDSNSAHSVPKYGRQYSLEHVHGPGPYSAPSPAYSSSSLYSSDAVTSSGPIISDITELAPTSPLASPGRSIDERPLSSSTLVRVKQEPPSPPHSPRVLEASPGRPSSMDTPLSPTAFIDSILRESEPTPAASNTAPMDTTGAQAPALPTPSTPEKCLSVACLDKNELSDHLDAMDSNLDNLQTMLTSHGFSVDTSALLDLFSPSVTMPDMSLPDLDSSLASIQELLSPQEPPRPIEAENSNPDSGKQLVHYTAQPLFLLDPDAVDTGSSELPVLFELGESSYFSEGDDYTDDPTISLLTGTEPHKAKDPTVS
# [2] = target: Heat shock protein HSP 90-alpha (Homo sapiens, UniProt P07900); format: functional, organism-based
# [3] = tested on: HeLa; experiment: HeLa cell cytotoxicity, dose response, cytotoxicity control for MITF activator project, CellTiter-Glo luminescence, cherry-pick samples (AID 540259); format: functional, cell-based; conditions: Homo sapiens
# [4] = Shn3 3'UTR reporter inhibitors, dose response, cell-based, Clone20 osteoblasts, firefly luciferase, cherry-picked (AID 624132); format: functional;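 further: firefly luciferase luminescence from reporter carrying the Shn3 3'UTR in osteoblasts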
# [5] = target: Paired box protein Pax-8 (Homo sapiens, UniProt Q06710); experiment: inhibitors of PAX8-driven TPO luciferase reporter, dose response, RMG-I cells, cherry-pick (AID 687027); format: functional, cell-based;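 further: luciferase reporter driven by Pax8 target thyroperoxidase promoter measured by SteadyGlo luminescence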
# [6] = tested on: CHO; experiment: cytotoxicity in TLR9-MyD88 CHO cells, dose response, cytotoxicity control for TLR9-MyD88 binding inhibitor project, cell-based, luminescence (AID 588339); format: functional, hamster; conditions: Cricetulus griseus;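 further: CHO cells stably coexpressing TLR9 and MyD88 fusions from primary screen; compound exposure lasted 48 hours before viability readout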
# [7] = target: T2, Microphthalmia-associated transcription factor (Homo sapiens, UniProt O75030); experiment: TRPM1 promoter luciferase signal decrease, dose response, MITF inhibitor project, cell-based, SK-MEL-5, cherry-picked, set 3 (AID 493073); format: functional
# T2 sequence (O75030 whole entry): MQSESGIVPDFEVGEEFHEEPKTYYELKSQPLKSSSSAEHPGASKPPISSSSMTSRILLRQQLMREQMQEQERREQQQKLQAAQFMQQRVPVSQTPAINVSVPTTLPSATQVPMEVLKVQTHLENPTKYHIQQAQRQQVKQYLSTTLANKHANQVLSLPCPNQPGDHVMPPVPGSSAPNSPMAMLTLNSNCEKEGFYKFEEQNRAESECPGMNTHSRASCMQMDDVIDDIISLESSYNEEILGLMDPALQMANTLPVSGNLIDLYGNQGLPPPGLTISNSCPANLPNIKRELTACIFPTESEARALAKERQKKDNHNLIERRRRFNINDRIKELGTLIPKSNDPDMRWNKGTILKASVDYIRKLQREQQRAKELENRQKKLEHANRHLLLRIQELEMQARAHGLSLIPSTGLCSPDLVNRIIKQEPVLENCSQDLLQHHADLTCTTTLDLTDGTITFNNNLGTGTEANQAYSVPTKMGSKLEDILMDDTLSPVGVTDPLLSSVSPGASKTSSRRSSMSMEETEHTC
# [8] = control 3'UTR Renilla luciferase suppression, dose response, counter-screen for Shn3 inhibitor project, cell-based, Clone20-Shn3RL, cherry-picked (AID 624133); format: functional
# [9] = non-specific cell cytotoxicity, dose response, cytotoxicity control for PAX8 inhibitor project, plate reader, dry powder samples (AID 743021); format: functional, cell-based
# [10] = HepG2 cell cytotoxicity, dose response, cytotoxicity control for Shn3 inhibitor project, CellTiter-Glo, cherry-picked (AID 624134); format: functional, cell-based
# [11] = cytotoxicity in HEK-293T cells, dose response, cytotoxicity control for TCR NF-kB inhibitor project, luminescence, T-cell screen hits (AID 489026); format: functional, cell-based;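 further: cells exposed to compound about 14 hours before the viability readout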
# [12] = tested on: BJ; experiment: cytotoxicity toward BJ-TERT fibroblasts, dose response, cell-based, RAS-independent, luminescence (AID 1933); format: functional; conditions: Homo sapiens
# [13] = tested on: BJ; experiment: cytotoxicity toward BJ-TERT-LT-ST fibroblasts, dose response, cell-based, RAS-independent, luminescence (AID 1935); format: functional; conditions: Homo sapiens;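 further: BJ fibroblasts immortalized with TERT plus LT and ST oncogenes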
# [14] = tested on: BJ; experiment: cells; format: functional, cell-based; conditions: Homo sapiens
# [15] = Luminescence Cell-Based Dose Response HTS to Identify Inhibitors of 5'UTR Stem-Loop Driven Prion Protein mRNA Translation in H4 Neuroglioblastoma Cells. [Related pubchem assays: 1827 (Project Summary), 1813 (Primary HTS)]; format: functional
# [16] = cytotoxicity toward DRD oncogenic fibroblasts, dose response, cell-based, non-viral oncogenic, luminescence (AID 1934); format: functional; conditions: Homo sapiens
# [17] = inhibitors of firefly luciferase expression or activity, dose response, H4 neuroglioma cells, luminescence (AID 1990); format: functional, cell-based
# [18] = microbe, parasite or virus in culture; format: functional; conditions: Mycobacterium tuberculosis
# [19] = inhibitors of SNCA 5'UTR-driven reporter translation, confirmation, H4 neuroglioma cells, luminescence (AID 1988); format: functional, cell-based
# [20] = tested on: BJ; experiment: cytotoxicity toward Ras-transformed BJeLR fibroblasts, dose response, cell-based, alamar blue fluorescence, cherrypicked samples (AID 2631); format: functional; conditions: Homo sapiens;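 further: confirmatory dose-response assay in RAS-dependent BJ fibroblasts engineered with TERT, LT and ST, with cytotoxicity read by fluorescence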
# [21] = HEp-2 cell cytotoxicity, dose response, cytotoxicity control for RSV inhibitor project, HTS (AID 2410); format: functional; conditions: human respiratory syncytial virus
# Paired box protein Pax-8, sequence (Q06710 whole entry, the tested form may be a part): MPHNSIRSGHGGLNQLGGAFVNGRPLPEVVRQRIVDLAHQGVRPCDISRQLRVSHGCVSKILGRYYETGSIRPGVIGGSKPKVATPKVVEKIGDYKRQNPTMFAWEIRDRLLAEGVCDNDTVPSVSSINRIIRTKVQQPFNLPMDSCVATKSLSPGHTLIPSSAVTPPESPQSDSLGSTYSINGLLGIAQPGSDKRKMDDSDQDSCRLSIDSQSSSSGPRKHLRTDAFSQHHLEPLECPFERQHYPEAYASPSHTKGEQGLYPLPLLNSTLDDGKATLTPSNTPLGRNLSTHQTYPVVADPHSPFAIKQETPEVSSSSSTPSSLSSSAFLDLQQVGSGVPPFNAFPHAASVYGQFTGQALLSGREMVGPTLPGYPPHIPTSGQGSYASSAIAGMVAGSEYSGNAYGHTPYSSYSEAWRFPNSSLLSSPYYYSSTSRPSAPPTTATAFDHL
smiles,measurement,setting,value
O=C(c1ccc2c(=O)n(C3CCCC3)c(=S)[nH]c2c1)N1CCc2ccccc21,EC50,[1],> 260 µM (inactive)
same,AC50,[2],3.49 µM (active)
Cc1ccc(-c2noc(C3CCCCC3)n2)cc1,AC50,[3],79.6 µM (active)
CC1(C(=O)c2ccccc2)C2c3c(ccc4ccccc34)OC(=O)C21C(=O)N1CCOCC1 (stereo not drawn),AC50,[2],4.17 µM (active)
CS(=O)(=O)c1ccc(C(=O)OCC(=O)NCc2cccs2)cc1[N+](=O)[O-],AC50,[4],2.07 µM (active)
same,AC50,[5],14 µM (active)
same,IC50,[6],4.83 µM (active)
same,AC50,[7],11.7 µM (active)
same,AC50,[8],13.4 µM (active)
same,AC50,[9],26 µM (active)
same,AC50,[10],62.3 µM (active)
CCCCOc1ccc(Br)cc1/C(C)=N/NC1=NCCN1,IC50,[11],46.8 µM (inactive)
same,EC50,[12],3.18 µM (inconclusive)
same,EC50,[13],6.41 µM (inconclusive)
same,EC50,[14],8.49 µM (inconclusive)
same,EC50,[15],4.92 µM (active)
same,EC50,[16],6.08 µM (active)
same,EC50,[17],4.71 µM (inconclusive)
same,CC50,[18],8.31 µM (active)
same,EC50,[19],3.86 µM (active)
same,EC50,[20],0.619 µM (inconclusive)
C(=N\Nc1nc2ccccc2[nH]1)/c1ccc2ncccc2c1,CC50,[21],2.99 µM (active)
same,EC50,[12],10.8 µM (active)
same,EC50,[13],30.7 µM (active)
same,EC50,[14],2.75 µM (inconclusive)
same,EC50,[16],2.32 µM (inconclusive)
same,EC50,[20],> 133 µM (inactive)
CN(/N=C/c1ccc2c(c1)OCO2)c1ccccc1,AC50,[3],98.3 µM (active)

# From ChEMBL document CHEMBL1201862, “PubChem BioAssay data set” (2004)
